Measured values as given in patent US9527840B2, “Substituted-quinoxaline-type piperidine compounds and the uses thereof” (priority 2007, dated 2016).

Assays:
hERG channel = biological target: T1, hERG channel (Homo sapiens, UniProt Q12809); experiment: In vitro hERG (human ether a-go-go gene) assay; format: cell-based
T1 construct: expressed in transfected cells

[1] = rat, in vivo
[2] = test system: guinea pig purkinje fibers
kappa opioid receptor = kappa opioid receptor (Homo sapiens, UniProt P41145); experiment: In vitro kappa-opioid receptor functional assay ([35S]GTPγS); format: biochemical
kappa opioid receptor, sequence (P41145 whole entry): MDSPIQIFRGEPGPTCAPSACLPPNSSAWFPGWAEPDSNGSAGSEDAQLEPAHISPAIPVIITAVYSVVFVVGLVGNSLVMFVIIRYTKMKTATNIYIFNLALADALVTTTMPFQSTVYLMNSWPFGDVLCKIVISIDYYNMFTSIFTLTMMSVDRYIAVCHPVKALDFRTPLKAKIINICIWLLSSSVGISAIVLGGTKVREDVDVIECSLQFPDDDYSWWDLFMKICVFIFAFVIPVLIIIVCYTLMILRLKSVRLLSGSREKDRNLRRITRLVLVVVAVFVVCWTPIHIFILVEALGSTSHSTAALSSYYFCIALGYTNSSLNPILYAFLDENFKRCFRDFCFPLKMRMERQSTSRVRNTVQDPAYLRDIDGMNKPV

T1 sequence (Q12809 whole entry): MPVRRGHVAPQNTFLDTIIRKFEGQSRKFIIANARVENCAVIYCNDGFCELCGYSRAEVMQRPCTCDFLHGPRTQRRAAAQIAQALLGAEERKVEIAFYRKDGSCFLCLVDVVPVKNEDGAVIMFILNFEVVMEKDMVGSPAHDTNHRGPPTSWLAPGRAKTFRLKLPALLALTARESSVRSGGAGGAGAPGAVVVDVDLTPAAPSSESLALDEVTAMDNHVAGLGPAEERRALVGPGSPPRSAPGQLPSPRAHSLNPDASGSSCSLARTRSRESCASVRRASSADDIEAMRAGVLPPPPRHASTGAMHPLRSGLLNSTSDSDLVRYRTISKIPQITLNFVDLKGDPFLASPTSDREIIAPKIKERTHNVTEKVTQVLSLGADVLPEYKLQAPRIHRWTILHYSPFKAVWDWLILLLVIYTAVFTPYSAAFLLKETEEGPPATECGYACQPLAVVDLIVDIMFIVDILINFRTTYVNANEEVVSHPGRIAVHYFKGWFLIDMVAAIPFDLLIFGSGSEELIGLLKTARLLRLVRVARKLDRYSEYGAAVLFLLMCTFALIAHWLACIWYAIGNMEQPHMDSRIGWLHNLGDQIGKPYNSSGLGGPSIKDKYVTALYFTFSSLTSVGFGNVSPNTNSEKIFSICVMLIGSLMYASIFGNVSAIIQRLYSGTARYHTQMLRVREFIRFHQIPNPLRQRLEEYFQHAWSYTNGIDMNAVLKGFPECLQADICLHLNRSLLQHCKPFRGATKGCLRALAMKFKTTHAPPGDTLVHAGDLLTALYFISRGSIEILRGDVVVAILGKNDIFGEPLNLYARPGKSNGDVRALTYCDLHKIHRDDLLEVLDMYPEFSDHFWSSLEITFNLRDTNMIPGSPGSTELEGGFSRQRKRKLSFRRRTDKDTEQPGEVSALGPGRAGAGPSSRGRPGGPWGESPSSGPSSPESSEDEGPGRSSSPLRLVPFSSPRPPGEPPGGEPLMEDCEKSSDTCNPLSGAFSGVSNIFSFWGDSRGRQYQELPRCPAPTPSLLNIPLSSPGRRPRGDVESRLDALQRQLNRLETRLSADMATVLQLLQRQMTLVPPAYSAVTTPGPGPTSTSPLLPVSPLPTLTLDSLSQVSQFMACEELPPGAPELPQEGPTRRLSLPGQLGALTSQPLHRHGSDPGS

Row | SMILES | cardiovascular side effects (hERG assay) (hERG channel) | abnormal behavioral side effects, such as sedation, hyperactivity and/or hypoactivity [1] | cardiovascular side effects (APD) [2] | EC50 (kappa opioid receptor) [µM]
1 | O=C(O)c1nc2ccccc2n([C@H]2C[C@H]3CCC[C@@H](C2)N3C2CC3CCCC(C3)C2)c1=O (stereo partly drawn) [Compound 362, 4-((endo)-9-((exo)-bicyclo[3.3.1]nonan-3-yl)-9-azabicyclo[3.3.1]nonan-3-yl)-3-oxo-3,4-dihydroquinoxaline-2-carboxylic acid] | reduced cardiovascular side effects | reduced abnormal behavioral side effects | reduced cardiovascular side effects | –
2 | O=C(O)C1CCN(c2nc3ccccc3n([C@H]3C[C@H]4CC[C@@H](C3)N4C3CCCCCCC3)c2=O)CC1 [Compound 99, 1-(4-((endo)-8-cyclooctyl-8-azabicyclo[3.2.1]octan-3-yl)-3-oxo-3,4-dihydroquinoxalin-2-yl)piperidine-4-carboxylic acid] | – | – | – | > 100
